Reference: patent publication US10016424B2, “Method and pharmaceutical composition for use in the treatment of epilepsy” (INSERM (Institut National de la Sante et de la Recherche …, priority 2013, dated 2018)

Key:
KARs = target: T1, KARs (Mus musculus, UniProt P39087+Q61626); format: cell-based; conditions: WT cultured slices; SYM2081 10 μM, UBP310 5 μM; Sr2+ conditions, 5 μM gabazine, 40 μM D-APV
T1 construct: from tissue; host or cells: dentate granule cells in pilocarpine-treated organotypic hippocampal/entorhinal slice cultures from WT mice (FVB/N)
Experimental: Hippocampal/entorhinal cortex slices (350 μm) were prepared from pre-genotyped GluK2−/− and WT mice (P9-10, FVB/N background) using a McIlwain tissue chopper. Slices were placed on mesh inserts (Millipore # PICMORG50) inside culture dishes containing 1 ml of the following medium: MEM 50%, HS 25%, HBSS 25%, HEPES 15 mM glucose 6.5 mg/ml and insulin 0.1 mg/ml. Culture medium was changed every 2-3 days and slices maintained in an incubator at 37° C./5% CO2. Pilocarpine (0.5 μM) was added to the medium at 5 D.I.V and removed at 7 D.I.V; slices were utilized for experiments from 9 D.I.V.
Cultured or acute slices were individually transferred to a recording chamber maintained at 30-32° C. and continuously perfused (2 ml/min) with oxygenated normal or adapted ACSF containing 5 μM gabazine. Local field potentials were made in the granule cell layer of the DG with glass electrodes (2-3 MΩ; filled with normal ACSF) using a DAM-80 amplifier (low filter, 1 Hz; […], 3 KHz; World Precision Instruments, Sarasota, Fla.). For evoked synaptic transmission, electrical stimulation was performed with a bipolar NiCh electrode (#762000, AM systems). […] Signals were analyzed off-line using Clampfit 9.2 (PClamp) and MiniAnalysis 6.0.1 (Synaptosoft, Decatur, Ga.). In organotypic slices, spontaneous EPSCs were recorded at the reversal potential for GABAergic currents (Vh=−70 mV). To characterize the nature and kinetic properties of fast and slow events, miniature EPSCs (mEPSCs) evoked in Sr2+ conditions (external Ca2+ was substituted with 1.2 mM Sr2+) were recorded in DGCs from GluK2−/− and WT slices. Electrical stimulation was made in the molecular layer in the continued presence of 5 μM gabazine and 40 μM D-APV; asynchronous mEPSCs were measured during the 300 ms period after the stimulus artifact. […] Filtered traces were also analyzed by Fourier analysis (Hamming) using Clampfit 9.2. In acute hippocampal slices, intensity of antidromically-evoked bursts was quantified using coastline index (Epsztein et al., 2005).

[1] = tested on: pilocarpine-status epilepticus model of chronic TLE; assay: Ictal discharges, telemetric intrahippocampal EEG in freely-moving pilocarpine-treated mice; format: in vivo, mouse
Experimental: All experiments were approved by the Institut National de la Santé et de la Recherche Médicale animal care and use committee of May 29, 2001 (2001-464) and the European community council directive of Nov. 24, 1986 (86/609/EEC). Mice (FVB/N background) had access to food and water ad libitum and were housed under a 12 h light/dark cycle at 22-24° C. Male GluK2−/− and WT mice (P60-80) were given scopolamine (1 mg/kg) subcutaneously (s.c.) 15 minutes prior to s.c. administration of pilocarpine (200-600 mg/kg). A ramp protocol was used whereby animals were given an initial dose of 200 mg/kg followed by half-doses every 30 minutes until seizures appeared. Both WT and GluK2−/− mice typically experienced at least two seizures prior to entering status epilepticus (SE). Diazepam (10 mg/kg) was administered 45 minutes after onset of SE.
Naïve wildtype (WT) and pilocarpine-treated WT or GluK2−/− mice (5-6 months old) were anaesthetized with xylazine 13 mg/kg/ketamine 66 mg/kg and placed in a stereotaxic frame (supplemental dosing was administered as required). Body temperature was maintained using a heating pad. […] After a 4 day recovery, EEG (amplified (1000×), filtered at 0.16-97 Hz pass, acquired at 500 Hz) was monitored using a telemetric system (Data Sciences International, St. Paul, Minn.) for 4 days, 24 h per day. […]

AMPA receptor = conditions: cited from earlier work

T1 sequence (P39087 32-908): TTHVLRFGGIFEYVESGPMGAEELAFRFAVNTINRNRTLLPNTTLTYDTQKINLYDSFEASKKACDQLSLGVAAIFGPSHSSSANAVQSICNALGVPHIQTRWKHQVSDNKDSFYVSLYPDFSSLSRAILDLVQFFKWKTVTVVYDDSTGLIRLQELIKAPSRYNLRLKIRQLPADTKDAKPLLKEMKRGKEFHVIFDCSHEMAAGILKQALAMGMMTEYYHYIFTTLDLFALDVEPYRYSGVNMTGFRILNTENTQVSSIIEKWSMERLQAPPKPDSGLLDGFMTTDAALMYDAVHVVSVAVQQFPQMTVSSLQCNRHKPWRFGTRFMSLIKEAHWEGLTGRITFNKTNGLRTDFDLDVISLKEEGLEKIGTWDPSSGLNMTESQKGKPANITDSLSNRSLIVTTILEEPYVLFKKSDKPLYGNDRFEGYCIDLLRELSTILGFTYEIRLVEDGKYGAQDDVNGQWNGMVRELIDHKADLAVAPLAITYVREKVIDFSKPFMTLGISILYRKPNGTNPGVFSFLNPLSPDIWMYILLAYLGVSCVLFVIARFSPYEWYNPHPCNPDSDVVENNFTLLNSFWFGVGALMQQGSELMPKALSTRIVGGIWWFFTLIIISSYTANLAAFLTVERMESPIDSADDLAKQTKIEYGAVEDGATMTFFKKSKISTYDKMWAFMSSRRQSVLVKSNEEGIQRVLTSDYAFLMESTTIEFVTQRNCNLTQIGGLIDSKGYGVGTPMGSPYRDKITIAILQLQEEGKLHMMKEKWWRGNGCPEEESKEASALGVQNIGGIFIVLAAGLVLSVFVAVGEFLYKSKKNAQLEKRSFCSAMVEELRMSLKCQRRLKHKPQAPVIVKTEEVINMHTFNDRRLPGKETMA
T1 sequence (Q61626 15-979): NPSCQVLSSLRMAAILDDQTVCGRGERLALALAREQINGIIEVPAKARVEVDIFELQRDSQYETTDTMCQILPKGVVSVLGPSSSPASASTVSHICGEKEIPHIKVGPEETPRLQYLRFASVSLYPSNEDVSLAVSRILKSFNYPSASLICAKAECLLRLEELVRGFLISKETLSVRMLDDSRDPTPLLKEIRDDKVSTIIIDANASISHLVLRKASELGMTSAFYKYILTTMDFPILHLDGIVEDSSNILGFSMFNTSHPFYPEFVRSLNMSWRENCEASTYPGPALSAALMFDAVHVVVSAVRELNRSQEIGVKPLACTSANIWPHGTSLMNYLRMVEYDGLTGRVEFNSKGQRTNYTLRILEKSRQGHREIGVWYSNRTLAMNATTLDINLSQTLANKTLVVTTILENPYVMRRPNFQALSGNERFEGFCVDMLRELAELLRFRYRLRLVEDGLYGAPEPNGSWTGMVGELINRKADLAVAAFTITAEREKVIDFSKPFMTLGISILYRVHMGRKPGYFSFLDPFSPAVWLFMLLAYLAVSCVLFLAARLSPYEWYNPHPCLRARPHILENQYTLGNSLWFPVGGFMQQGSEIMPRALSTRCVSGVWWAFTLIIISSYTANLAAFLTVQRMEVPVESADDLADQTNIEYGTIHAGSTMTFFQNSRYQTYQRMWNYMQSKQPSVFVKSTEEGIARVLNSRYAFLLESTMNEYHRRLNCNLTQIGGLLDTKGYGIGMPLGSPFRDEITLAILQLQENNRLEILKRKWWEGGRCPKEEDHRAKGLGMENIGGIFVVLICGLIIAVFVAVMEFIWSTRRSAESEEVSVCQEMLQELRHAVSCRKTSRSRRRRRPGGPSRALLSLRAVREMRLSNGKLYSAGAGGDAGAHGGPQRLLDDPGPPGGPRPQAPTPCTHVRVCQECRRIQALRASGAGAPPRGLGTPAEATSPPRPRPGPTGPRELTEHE

What does the source list for Cc1cn(C[C@H](N)C(=O)O)c(=O)n(Cc2ccsc2C(=O)O)c1=O [UBP310]?
effect on KAR-mediated mEPSCs (KARs): abolished; change in duration of ictal events ([1]; 60 mg/kg intraperitoneal for 3 days, P=0.286): without a significant change; reduction of number of ictal events ([1]; 60 mg/kg intraperitoneal twice a day for 3 days, WT epileptic mice, freely moving): 41%; interference with normal synaptic transmission due to the AMPA receptor (AMPA receptor): does not interfere
